Measurements from ChEMBL document CHEMBL5329158 (RSC Med Chem, 2023).

Legend:
[1] = Selectivity index, ratio of CC50 for cytotoxicity against mouse NCTC clone 929 cells assessed as inhibition of cell growth to IC50 for antileishmanial activity against Leishmania infantum MHOM/BR/1972/LD amastigotes infected in mouse Peritoneal macrophage cells assessed as inhibition of parasite growth; assay type: toxicity, cell-based; conditions: read-out: Ratio CC50/IC50
[2] = tested on: Leishmania infantum; assay: Antileishmanial activity against Leishmania infantum MHOM/BR/1972/LD amastigotes infected in mouse Peritoneal macrophage cells assessed as inhibition of parasite growth incubated for 96 hrs by light microscopic analysis; assay type: functional, organism-based
[3] = Leishmania infantum, MHOM/BR/1972/LD, Peritoneal macrophage, 96 h, read-out: IC50

SMILES	selectivity ratio [1]	IC50 [2, 3] [µM]	also measured
C=CCc1ccc(Oc2cc(CC=C)cc(OC)c2OCCN2CCOCC2)c(OC)c1	6.6	–	–
COc1ccc(COc2c(OC)cc(CN3CCOCC3)cc2Oc2ccc(CN3CCOCC3)cc2OC)cc1	2.7	–	–
CCCc1ccc(OCc2ccc(OC)cc2)c(Oc2ccc(CN3CCOCC3)cc2OC)c1	–	–	IC50 ([2]; peritoneal macrophage): Not Active
C=CCc1cc(OC)c(O)c(Oc2ccc(CN3CCOCC3)cc2OC)c1	–	> 50	–
CCCc1ccc(Oc2cc(CCC)cc(OC)c2OCc2ccc(OC)cc2)c(OC)c1	–	> 50	–
C=CCc1ccc(Oc2cc(CC=C)cc(OC)c2OCC(=O)N2CCOCC2)c(OC)c1	–	> 50	–
C=CCc1ccc(Oc2cc(CCC)cc(OC)c2OCc2ccc(OC)cc2)c(OC)c1	–	> 50	–
C=CCc1cc(OC)c(OC)c(Oc2ccccc2OC)c1	–	> 50	–
CCCc1cc(OC)c(OCc2ccc(OC)cc2)c(Oc2ccc(CN3CCOCC3)cc2OC)c1	9.7	–	–
C=CCc1cc(OC)cc(Oc2ccc(CC=C)cc2OC)c1	–	> 50	–
C=CCc1ccc(Oc2cccc(OC)c2O)c(OC)c1	–	> 50	–
C=CCc1ccc(Oc2cccc(OC)c2OC(C)=O)c(OC)c1	–	> 50	–
CCCc1cc(OC)c(OCc2ccc(OC)cc2)c(Oc2ccc(CN3CCCCC3)cc2OC)c1	3.9	–	–
CCCc1ccc(Oc2cc(CN3CCOCC3)cc(OC)c2OCc2cc(OC)c(OC)c(OC)c2)c(OC)c1	> 7.6	–	–
C=CCc1cc(OC)c(OCc2ccc(OC)cc2)c(Oc2ccc(CN3CCCC3)cc2OC)c1	–	> 50	–
C=CCc1ccc(Oc2cc(CC=C)cc(OC)c2O)cc1	–	–	IC50 ([2]; peritoneal macrophage): Not Active
C=CCc1ccc(Oc2cccc(OC)c2OC)c(OC)c1	–	> 50	–
C=CCc1cc(OC)c(O)c(Oc2ccc(CCC)cc2OC)c1	–	> 50	–
C=CCc1ccc(Oc2cc(CC=C)cc(OC)c2OCc2ccc(OC)cc2)c(OC)c1	–	> 50	–
C=CCc1ccc(Oc2cc(CC=C)ccc2OCc2ccc(OC)cc2)c(OC)c1	–	–	IC50 ([2]; peritoneal macrophage): Not Active

SMILES	selectivity ratio [1]	IC50 [2, 3] [µM]	also measured
C=CCc1cc(OC)c(OCc2ccc(OC)cc2)c(Oc2ccc(CCC)cc2OC)c1	–	> 50	–
CCCc1ccc(Oc2cc(CN3CCCCC3)cc(OC)c2OCc2ccc(OC)cc2)cc1	7.6	–	–
C=CCc1cc(OC)c(OCc2ccc(OC)cc2)c(Oc2ccccc2OC)c1	> 8.3	–	–
C=CCc1cc(OC)c(O)c(Oc2ccc(CN3CCCC3)cc2OC)c1	–	> 50	–
C=CCc1cc(OC)c(OC(C)=O)c(Oc2ccccc2OC)c1	> 6.1	–	–
CCCc1ccc(Oc2cc(CN3CCOCC3)cc(OC)c2OCc2ccc(OC)cc2)cc1	> 13.1	–	–
C=CCc1ccc(Oc2cc(CC=C)cc(OC)c2OCC(=O)N2CCCC2)c(OC)c1	2.6	–	–
C=CCc1cc(OC)c(O)c(Oc2ccccc2OC)c1	–	> 50	–
C=CCc1ccc(Oc2cc(CC=C)cc(OC)c2OCOC)c(OC)c1	–	> 50	–
C=CCc1ccc(Oc2cccc(OC)c2OCc2ccc(OC)cc2)c(OC)c1	–	–	IC50 ([2]; peritoneal macrophage): Not Active
C=CCc1cc(OC)c(OCc2ccc(OC)cc2)c(Oc2ccc(CN3CCOCC3)cc2OC)c1	> 20.6	–	–
C=CCc1cc(OC)c(OC)c(Oc2ccc(CCC)cc2OC)c1	–	> 50	–
CCCc1ccc(Oc2cc(CN3CCOCC3)cc(OC)c2OCc2ccc(C(F)(F)F)cc2)c(OC)c1	> 15.1	–	–
C=CCc1ccc(Oc2cc(CCC)cc(OC)c2O)c(OC)c1	–	> 50	–
CCCc1ccc(Oc2cc(CN3CCOCC3)cc(OC)c2OCc2ccc(OC)cc2)c(OC)c1	> 12.2	–	–
C=CCc1ccc(Oc2cc(CC=C)cc(OC)c2OCCN2CCCC2)c(OC)c1	6	–	–
C=CCc1ccc(Oc2cc(CC=C)cc(OC)c2OCc2ccc(OC)cc2)cc1	–	–	IC50 ([2]; peritoneal macrophage): Not Active
C=CCc1ccc(O)c(Oc2ccc(CC=C)cc2OC)c1	–	–	IC50 ([2]; peritoneal macrophage): Not Active
CCCCCCCCCCCCCCCCOP(=O)([O-])OCC[N+](C)(C)C [MILTEFOSINE]	18.4	–	–
